The source of these data is PubChem BioAssay AID274 (DTP/NCI, 2004).

The test system of this assay is BDF1 mice, Lewis lung carcinoma iv, survival T/C. The experiment in a line: NCI In Vivo Anticancer Drug Screen. Data for tumor model Lewis Lung Carcinoma (intravenous) in B6D2F1 (BDF1) mice. As to conditions: endpoint: median survival time, higher = longer survival. As to the method: The antitumor activity of compounds was measured in mice bearing transplantable tumors. Survival or tumor size were measured and the results are expressed as the measurement made in the treated group (T) divided by the measurement made in the vehicle treated control group (C). The tumor model used in this assay is Lewis Lung Carcinoma (intravenous) in B6D2F1 (BDF1) mice

The mark [1] stands for this setting: dose: 12.5 mg/kg/injection, schedule: Q01DX009 (ip), vehicle: saline with Tween-80.
Where [2] appears, read: dose: 25.0 mg/kg/injection, schedule: Q01DX009 (ip), vehicle: saline with Tween-80.
Setting [3] is: dose: 50.0 mg/kg/injection, schedule: Q01DX009 (ip), vehicle: saline with Tween-80.
The mark [4] stands for this setting: dose: 100.0 mg/kg/injection, schedule: Q01DX009 (ip), vehicle: saline with Tween-80.
Where [5] appears, read: dose: 6.25 mg/kg/injection, schedule: Q01DX009 (ip), vehicle: saline.
Where [6] appears, read: dose: 12.5 mg/kg/injection, schedule: Q01DX009 (ip), vehicle: saline.
[7] abbreviates: dose: 25.0 mg/kg/injection, schedule: Q01DX009 (ip), vehicle: saline.
[8] abbreviates: dose: 50.0 mg/kg/injection, schedule: Q01DX009 (ip), vehicle: saline.
[9] abbreviates: dose: 100.0 mg/kg/injection, schedule: Q01DX009 (ip), vehicle: saline.

Several values for one entry are separate records, joined by “and”; a condition that tells them apart may be missing. Equal values may be shown once. Toxic doses and inconclusive results are not listed. Numbered stars: 1 amine (or outer) side, 2 acyl side, 3 side chain; on linkers, the order of the positions; unused ones are H or OH. Square brackets hold non-standard residues; d marks the D form. Peptide text beside a SMILES is read from it. * marks the point of attachment. X2 = CCC(=O)CC1CC(C)CC(C(=O)[*:2])N1[*:1]; Trt = c1ccc(C(c2ccccc2)(c2ccccc2)*)cc1; X1 = CCCCCCCCC(C)C(=O)*; Cbz = O=C(OCc1ccccc1)*; Aib = CC(C)(N)C(=O)O; X3 = CC(CN(C)CCO)N*; Bn = c1ccc(C*)cc1; βAla = NCCC(=O)O

For `CCCCCCCCC(C)C(=O)N1CCCC1C(=O)N1C(CC(=O)CC)CC(C)CC1C(=O)NC(C)C(=O)NC(C)(C)C(=O)NC(C)(C)C(=O)NC(C(=O)NC(C)C(=O)NC(C)(C)C(=O)NC(C)(C)C(=O)NC(C)CN(C)CCO)C(C)CC` (centres undefined) (X1-P[X2]A[Aib][Aib]IA[Aib][Aib]-X3; configuration not given here), the T/C runs as follows: (dose: 0.31 mg/kg/injection, schedule: Q01DX009 (ip), vehicle: Klucel (hydroxypropylcellulose) (HPC)) 105 % of control; (dose: 0.62 mg/kg/injection, schedule: Q01DX009 (ip), vehicle: Klucel (hydroxypropylcellulose) (HPC)) 97 % of control; (dose: 1.25 mg/kg/injection, schedule: Q01DX009 (ip), vehicle: Klucel (hydroxypropylcellulose) (HPC)) 99 % of control; (dose: 2.5 mg/kg/injection, schedule: Q01DX009 (ip), vehicle: Klucel (hydroxypropylcellulose) (HPC)) 104 % of control; (dose: 5.0 mg/kg/injection, schedule: Q01DX009 (ip), vehicle: Klucel (hydroxypropylcellulose) (HPC)) 104 % of control.

For the compound `CC(=O)CC(C)=O.CC(=O)CC(C)=O.O=N[O-].O=N[O-].[Co]`, the T/C reads like this: under setting [1], 103 % of control; under setting [2], 96 % of control; under setting [3], 107 % of control.

Turning to `COC(=O)C(CSC(c1ccccc1)(c1ccccc1)c1ccccc1)NC(=O)C(CSCc1ccccc1)NC(=O)CCNC(=O)OCc1ccccc1` (centres undefined) ({Cbz-βAla}-Cys(Bn)-Cys(Trt)-OMe; configuration not given here), the T/C (dose: 12.5 mg/kg/injection, schedule: Q01DX009 (ip), vehicle: Klucel (hydroxypropylcellulose) (HPC)) was 104 % of control; the T/C (dose: 25.0 mg/kg/injection, schedule: Q01DX009 (ip), vehicle: Klucel (hydroxypropylcellulose) (HPC)) is 96 % of control; the T/C (dose: 50.0 mg/kg/injection, schedule: Q01DX009 (ip), vehicle: Klucel (hydroxypropylcellulose) (HPC)) is 103 % of control; the T/C (dose: 100.0 mg/kg/injection, schedule: Q01DX009 (ip), vehicle: Klucel (hydroxypropylcellulose) (HPC)) is 98 % of control; the T/C (dose: 200.0 mg/kg/injection, schedule: Q01DX009 (ip), vehicle: Klucel (hydroxypropylcellulose) (HPC)) is 97 % of control.

As to `[N-]=[N+]=CC(=O)CCC(N)C(=O)O` (centres undefined), the T/C was 95 % of control (dose: 0.01 mg/kg/injection, schedule: Q01DX009 (ip), vehicle: saline); 98 % of control (dose: 0.02 mg/kg/injection, schedule: Q01DX009 (ip), vehicle: saline); 108 % of control (dose: 0.05 mg/kg/injection, schedule: Q01DX009 (ip), vehicle: saline); 109 % of control and 111 % of control (dose: 0.1 mg/kg/injection, schedule: Q01DX009 (ip), vehicle: saline).

Regarding `O=[n+]1c2c(n([O-])c3ccccc31)-c1cccc3cccc-2c13`, the T/C reads like this: under setting [2], 100 % of control; under setting [3], 104 % of control; under setting [4], 105 % of control.

With `O=C1C=CC(=Nc2ccc3c(c2)C(Br)c2ccccc2-3)O1` (centres undefined), the T/C by setting is: (dose: 5.0 mg/kg/injection, schedule: Q01DX009 (ip), vehicle: saline with Tween-80) 115 % of control; (dose: 10.0 mg/kg/injection, schedule: Q01DX009 (ip), vehicle: saline with Tween-80) 111 % of control; (dose: 20.0 mg/kg/injection, schedule: Q01DX009 (ip), vehicle: saline with Tween-80) 112 % of control.

Consider `O=C(N/N=C/c1ccccc1O)c1ccncc1`, for which the T/C is, setting by setting: (dose: 108.0 mg/kg/injection, schedule: Q01DX007 (ip), vehicle: Klucel (hydroxypropylcellulose) (HPC)) 95 % of control; (dose: 154.4 mg/kg/injection, schedule: Q01DX007 (ip), vehicle: Klucel (hydroxypropylcellulose) (HPC)) 99 % of control; (dose: 220.5 mg/kg/injection, schedule: Q01DX007 (ip), vehicle: Klucel (hydroxypropylcellulose) (HPC)) 89 % of control; (dose: 315.0 mg/kg/injection, schedule: Q01DX007 (ip), vehicle: Klucel (hydroxypropylcellulose) (HPC)) 89 % of control.

Regarding `O=C(NO)c1ccc(O)c(O)c1`, the T/C was 100 % of control (dose: 25.0 mg/kg/injection, schedule: Q01DX009 (ip), vehicle: water); 100 % of control (dose: 50.0 mg/kg/injection, schedule: Q01DX009 (ip), vehicle: water); 100 % of control (dose: 100.0 mg/kg/injection, schedule: Q01DX009 (ip), vehicle: water); 108 % of control (dose: 200.0 mg/kg/injection, schedule: Q01DX009 (ip), vehicle: water); 117 % of control (dose: 300.0 mg/kg/injection, schedule: Q01DX009 (ip), vehicle: suspension in saline); 114 % of control (dose: 400.0 mg/kg/injection, schedule: Q01DX009 (ip), vehicle: suspension in saline). For the setting “dose: 500.0 mg/kg/injection, schedule: Q01DX009 (ip), vehicle: suspension in saline”, the T/C is 122 % of control.

As for `CN(C)CCNc1ccc([N+](=O)[O-])c2sc3ccccc3c(=O)c12`, the T/C (dose: 6.25 mg/kg/injection, schedule: Q01DX009 (ip), vehicle: saline with Tween-80) is 106 % of control; the T/C under setting [1] was 109 % of control and 112 % of control; the T/C under setting [2] was 104 % of control; the T/C under setting [3] was 153 % of control.

With `Nc1nc([Se])c2ncn(C3OC(CO)C(O)C3O)c2n1` (centres undefined), the T/C by setting is: (dose: 2.0 mg/kg/injection, schedule: Q01DX009 (ip), vehicle: saline) 96 % of control; (dose: 4.0 mg/kg/injection, schedule: Q01DX009 (ip), vehicle: saline) 99 % of control; (dose: 8.0 mg/kg/injection, schedule: Q01DX009 (ip), vehicle: saline) 118 % of control.

Regarding `C(CSC1=NCCN1)CSC1=NCCN1`, the T/C was 93 % of control under setting [5]; 100 % of control under setting [6]; 93 % of control under setting [7]; 93 % of control under setting [8]; 102 % of control under setting [9]; 100 % of control (dose: 200.0 mg/kg/injection, schedule: Q01DX009 (ip), vehicle: saline).

Regarding `CCCCCCCCCCCCCCCCCCCCCC(=O)Nc1ccn(C2OC(CO)C(O)C2O)c(=O)n1` (centres undefined), the T/C reads like this: under setting [2], 94 % of control; under setting [3], 124 % of control; under setting [4], 113 % of control; (dose: 200.0 mg/kg/injection, schedule: Q01DX009 (ip), vehicle: saline with Tween-80) 120 % of control.

On to `CCC1(O)CC2CN(CCc3c([nH]c4ccccc34)C(C(=O)OC)(c3cc4c(cc3OC)N(C)C3C(O)(C(N)=O)C(O)C5(CC)C=CCN6CCC43C65)C2)C1` (centres undefined) (tested in a mixture with another compound), for which the T/C by setting is: (dose: 0.6 mg/kg/injection, schedule: Q04DX003 (ip), vehicle: saline) 106 % of control; (dose: 1.0 mg/kg/injection, schedule: Q04DX003 (ip), vehicle: saline) 111 % of control; (dose: 1.67 mg/kg/injection, schedule: Q04DX003 (ip), vehicle: saline) 97 % of control; (dose: 216.0 micrograms/kg/injection, schedule: Q01DX009 (ip), vehicle: saline) 93 % of control; (dose: 360.0 micrograms/kg/injection, schedule: Q01DX009 (ip), vehicle: saline) 97 % of control.

Take `CC1(C)COCN1COCCOCN1COCC1(C)C`: the T/C under setting [5] is 114 % of control; the T/C under setting [6] was 97 % of control; the T/C under setting [7] was 106 % of control; the T/C under setting [8] was 122 % of control; the T/C under setting [9] was 95 % of control.

For the compound `ClCC[Se](Cl)(Cl)c1ccccc1`, the T/C is, setting by setting: (dose: 0.78 mg/kg/injection, schedule: Q01DX009 (ip), vehicle: saline) 98 % of control; (dose: 1.56 mg/kg/injection, schedule: Q01DX009 (ip), vehicle: saline) 109 % of control; (dose: 3.0 mg/kg/injection, schedule: Q01DX009 (ip), vehicle: saline) 114 % of control.
